“Also recorded” adds a separate entry of the source. [ ]: non-standard residue; d: D form.
Assays:
[1] = tested on: VEGF-induced angiogenesis; assay: in vivo rabbit eye model assay, VEGF-induced corneal angiogenesis
Procedure: Hydron polymer pellets containing growth factor and monoclonal antibodies (mAbs) were prepared as described by D'Amato, et al., Proc. Natl. Acad. Sci., 91:4082–4085 (1994). […] In addition, hydron pellets were prepared which contained either 40 μg of the mAb P1F6 (anti-αvβ5) or the control antibody, LM609 (anti-αvβ3), in PBS.
All of the mAbs tested were purified from ascites fluid using Protein-A Sepharose CL-4B affinity column chromatography according to well-known methods. The eluted immunoglobulin was then dialyzed against PBS and treated with Detoxi-gel (Pierce Chemicals, Rockford, Ill.) to remove endotoxin. […] Monoclonal antibodies were therefore tested for the presence of endotoxin with the Chromogenic Limulus Amebocyte Lysate Assay (BioWhittaker, Walkersville, Md.) and only those mAbs without detectable endotoxin were used in the rabbit eye model assay.
Approximately 12 μl of casting material was placed into each peg and polymerized overnight in a sterile hood. Pellets were then sterilized by ultraviolet irradiation.
A series of eight animals were used for paired eye experiments where each animal received a Hydron implant containing a preselected cytokine with a preselected antibody or control immunoglobulin. Specifically, for each rabbit, one cornea was surgically implanted with a Hydron pellet containing either bFGF or VEGF in conjunction with mAb P1F6 and the other cornea was treated with either bFGF or VEGF in conjunction with MAb LM609. […]
The effects of specific mAb integrin immunoreactivity on the above cytokine-induced angiogenesis is also quantified as shown in FIGS. 2A and 2B. […] Photographs were recorded on Kodak Ektachrome 64T slide film and images were converted for computer-assisted quantitation using Biorad's Molecular Analyst 1.1 software after acquisition through a Model GS670 imaging densitometer. […]
Each experiment consisted of eight rabbits in which one eye received a pellet comprising 100 nanograms (ng) bFGF and the other eye received a pellet comprising 1 microgram (ug) VEGF. […] After 7 days, the cornea were evaluated as described above.

[2] = tested on: M21L human melanoma tumors; assay: chimeric mouse:human (SCID) assay, M21L melanoma tumor growth; type: in vivo; conditions: for tumor volume (FIG. 9): 250 μg peptide intraperitoneally 3 times per week over 3 weeks; for tumor volume (FIG. 21): M21-L tumors, peptides compared with mAB LM609
Procedure: An in vivo chimeric mouse:human model was generated by replacing a portion of skin from a SCID mouse with human neonatal foreskin. The in vivo chimeric mouse:human model was prepared essentially as described in Yan, et al., J. Clin. Invest., 91:986–996 (1993). Briefly, a 2 cm^2 square area of skin was surgically removed from a SCID mouse (6–8 weeks of age) and replaced with a human foreskin. The mouse was anesthetized and the hair removed from a 5 cm^2 area on each side of the lateral abdominal region by shaving. Two circular graft beds of 2 cm^2 were prepared by removing the full thickness of skin down to the fascia. Full thickness human skin grafts of the same size derived from human neonatal foreskin were placed onto the wound beds and sutured into place. The graft was covered with a Band-Aid which was sutured to the skin. Micropore cloth tape was also applied to cover the wound.
After the skin graft was established, the human foreskin was inoculated with melanoma cells. The M21L human melanoma cell line was used to form the solid human tumors on the human skin grafts on the SCID mice. A single cell suspension of 2×10^6 M21L was injected intradermally into the human skin graft. The mice were then observed for 2 to 4 weeks to allow growth of measurable human tumors.
After a measurable tumor was established, either 250 μg of the peptide (in a volume of 100 μl) having SEQ ID NO 9 (cyclic RGD-containing peptide Arg-Gly-Asp-D-Phe-Asn-NMeVAL) or a control peptide, cyclo Arg-βAla-Asp-D-Phe-Val, were injected intraperitoneally into the mouse 3 times per week over 3 weeks. At the end of this time, the tumor was excised and analyzed by weight and histology.
In additional assays with the SCID mice model having measurable M21-L tumors, in a preliminary analysis, a dose response curve was performed for peptides 69601 (control) and 85189 (test) injected over a concentration range of 10 to 250 μg/ml. The mean volume and weight of resected tumors following treatment were determined with the results respectively shown in FIGS. 22A and 22B.
For analyzing peptide 85189 treatment effectiveness over a time course, two treatment regimens were evaluated in the same SCID tumor model. In one assay, treatment with either peptide 85189 or 69601 was initiated on day 6, with day 0 being the day of M21-L tumor injection of 3×10^6 cells subcutaneously into mouse skin, with intraperitoneal injections of 250 μg/ml peptide 85189 or control 69601 every other day until day 29. The other assay was identically performed with the exception that treatment was initiated on day 20. At the end of the assays, the tumors were resected and the mean tumor volume in mm^3 was determined. The data was plotted as this value +/− the standard error of the mean.

Molecule: cyclo(Arg-Ala-Asp-D-Phe-Val) (cyclo(RAD[dF]V); SMILES CC(C)[C@@H]1NC(=O)[C@@H](Cc2ccccc2)NC(=O)[C@H](CC(=O)O)NC(=O)[C@H](C)NC(=O)[C@H](CCCNC(=N)N)NC1=O) [peptide 69601, reference compound]
- corneal blood vessel growth at 7 days, VEGF-stimulated eyes ([1]; peptide s.q. 50 ug per kg initial, 20 ug/kg daily, 1 ug VEGF pellet): substantial corneal blood vessel growth
- tumor volume (FIG. 9) [2]: greater than 300 mm^3
- tumor volume (FIG. 21) [2]: approximately 360 mm^3

Molecule: cyclo(Arg-Gly-Asp-D-Phe-NMeVal) [peptide 85189]
- inhibition of corneal blood vessel growth ([1]; peptide s.q. 50 ug per kg initial, 20 ug/kg daily, 7 days, 1 ug VEGF pellet): ~100%
- tumor volume (FIG. 9) [2]: approximately 25 mm^3
- inhibition of tumor growth over a time course (mean tumor volume) ([2]; 250 μg/ml intraperitoneally every other day from day 6 or day 20 until day 29): inhibited tumor growth
- inhibition of M21-L tumor growth, dose response (volume and weight) ([2]; 10 to 250 μg/ml, preliminary analysis): effective at inhibiting M21-L tumor growth
- tumor volume (FIG. 21) [2]: below 25 mm^3
- most effective dosage ([2]; range tested 10 to 250 μg/ml): 250 µg/mL

B1: LM609: mouse monoclonal antibody, anti-αvβ3 (antibody, V domains shown)
VH: EVQLEESGGGLVKPGGSLKLSCAASGFAFSSYDMSWVRQIPEKRLEWVAKVSSGGGSTYYLDTVQGRFTISRDNAKNTLYLQMSSLNSEDTAMYYCARHNYGSFAYWGQGTLVTVSA
VL: ELVMTQTPATLSVTPGDSVSLSCRASQSISNHLHWYQQKSHESPRLLIKYASQSISGIPSRFSGSGSGTDFTLSINSVETEDFGMYFCQQSNSWPHTFGGGTKLEIKRA
- inhibition of VEGF-induced corneal angiogenesis ([1]; Hydron pellet with 750 ng VEGF and 40 μg mAb, postoperative day 10): not effective at inhibiting VEGF-induced angiogenesis; also recorded: minimal effect on VEGF-induced angiogenesis
- tumor volume (FIG. 21) [2]: approximately 60 mm^3
